Data on 32 molecules can be found in US11040976B2, “Substrate selective inhibitors of insulin-degrading enzyme (IDE) and uses thereof” (President and Fellows of Harvard College, priority 2015, dated 2021).

For experiment [1], the target named is T1, Human N-His6-IDE42-1019 (E. coli expressed) (Homo sapiens, UniProt P14735).
T1 construct: Human N-His6-IDE42-1019 (E. coli expressed); made in house; host or cells: E. coli (Rosetta 2 (DE3) pLysS, plasmid pTrcHis-A)
T1 sequence (P14735 42-1019): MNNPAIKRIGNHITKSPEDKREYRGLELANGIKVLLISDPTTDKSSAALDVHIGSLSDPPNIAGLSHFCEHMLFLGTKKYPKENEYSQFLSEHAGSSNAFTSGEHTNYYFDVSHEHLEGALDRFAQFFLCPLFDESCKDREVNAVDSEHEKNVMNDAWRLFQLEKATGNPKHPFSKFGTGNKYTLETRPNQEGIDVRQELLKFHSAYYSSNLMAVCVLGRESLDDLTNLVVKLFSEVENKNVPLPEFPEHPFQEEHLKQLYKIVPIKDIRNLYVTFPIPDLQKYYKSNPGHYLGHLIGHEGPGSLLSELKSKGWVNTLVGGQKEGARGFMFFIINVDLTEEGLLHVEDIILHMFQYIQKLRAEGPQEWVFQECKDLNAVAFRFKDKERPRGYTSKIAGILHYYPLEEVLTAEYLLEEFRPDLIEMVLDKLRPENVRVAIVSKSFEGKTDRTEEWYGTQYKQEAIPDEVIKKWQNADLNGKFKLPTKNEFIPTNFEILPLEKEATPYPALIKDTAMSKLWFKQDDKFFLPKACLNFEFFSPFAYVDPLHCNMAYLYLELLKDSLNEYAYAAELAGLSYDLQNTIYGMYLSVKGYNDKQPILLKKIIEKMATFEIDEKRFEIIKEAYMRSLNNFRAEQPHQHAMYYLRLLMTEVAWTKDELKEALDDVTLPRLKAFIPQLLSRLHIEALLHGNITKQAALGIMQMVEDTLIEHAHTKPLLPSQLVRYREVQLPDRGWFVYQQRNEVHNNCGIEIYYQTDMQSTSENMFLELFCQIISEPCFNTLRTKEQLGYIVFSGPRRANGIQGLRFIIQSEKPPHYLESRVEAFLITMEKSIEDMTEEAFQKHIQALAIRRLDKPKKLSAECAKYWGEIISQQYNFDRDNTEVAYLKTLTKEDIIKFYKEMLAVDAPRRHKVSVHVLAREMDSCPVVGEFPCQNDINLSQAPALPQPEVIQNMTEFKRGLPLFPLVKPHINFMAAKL
The experiment can be described thus: Fluorescence anisotropy high-throughput screening assay (displacement of probe FL-6b). Type of experiment: binding. As for the experimental part: The fluorescence anisotropy screening method and probe FL-6b are described in PCT application PCT/US2014/064322, incorporated herein by reference.
Human N-His6-IDE42-1019 (E. coli expressed) was mixed with fluorescein-labeled macrocycle FL-6b:
[drawing 802] in 50 mM Tris buffer pH 8.0, with 1 M NaCl, at 25° C. Optimum signal was obtained using a mixture of […] probe FL-6b and 0.5 μM IDE. The “diversity-oriented (DOS) synthesis informer set” compound plates were pinned onto 384-well plates containing the enzyme-probe mixture (50 μL/well). The azetidine screen was pre-printed on 384-well plates and the enzyme-probe mixture was added (50 μL/well). The final compound concentration was 20 μM. IDE inhibitor 6bK was used as a positive control at a final concentration of 1 μM. After 30 minutes of equilibration, the increase in fluorescence anisotropy was recorded using an EnVision spectrophotometer (excitation 492 nm, emission 523 nm). The fluorescence anisotropy was independently measured twice for each screened compound. The Z-scores for each pair of measurements are plotted in FIG. 1A (DOS informer set) and FIG. 1B (azetidines), and average Z-scores are listed for exemplary compounds in Table E1.
Z-scores were calculated based on the raw anisotropy measured for each well according to Eq. 1, wherein x is the raw anisotropy value of the well, μ is the mean of the anisotropy of the negative control wells (DMSO) for the plate, and σ is the standard deviation in anisotropy of the negative control wells (DMSO) for the plate.

In experiment [2] the target is T2, recombinant human IDE42-1019 (Homo sapiens, UniProt P14735).
T2 construct: recombinant human IDE42-1019 (R&D Systems); purchased R&D Systems
T2 sequence (P14735 42-1019): T1 sequence (P14735 42-1019)
The experiment in a line: Protease assay with fluorogenic peptide substrate Mca-[…](Dnp)-OH. The note with it: fluorogenic peptide Mca-RPPGFSAFK(Dnp)-OH; for IC50: apparent IC50 for compounds with submaximal inhibition, read-out: IC50 (μM) Proteolysis; for Emax: plateau at high inhibitor concentration, read-out: Imax (%) Proteolysis (inhibition maximum). The experiment is classed as biochemical.

The mark [3] stands for this setting: final compound concentration 20 μM (6bK control 1 μM), values without asterisk.
Where [4] appears, read: values marked *: from the screen using the diversity-oriented synthesis (DOS) informer set of plates, 20 μM.

Usually IC50 stands for the concentration at which inhibition is half-maximal. Regarding `COc1cccc(C#Cc2ccc([C@@H]3[C@H](CO)N4C(=O)CN(C(C)=O)C[C@@H]34)cc2)c1` [compound 608], in experiment [1] (setting [3]), the “Average Z-score (Fluorescence anisotropy)” value (shortened to “Average Z-score”) is given as −15.34. In addition, in experiment [2], the IC50 was less than 10 µM and the Emax is roughly 100%.

`COc1ccccc1-c1ccc([C@H]2[C@@H](CO)N3CCCCN(C(=O)c4cccnc4)C[C@H]23)cc1` [compound 983]: the “Average Z-score” value in experiment [1] (setting [4]) is −12.81*. In experiment [2], the IC50 was greater than 20 µM and the Emax is 90%.

On to `Cc1cccc(-c2ccc([C@@H]3[C@@H](CO)N4C(=O)CN(C(=O)Cc5ccccn5)C[C@@H]34)cc2)c1` [compound 348], for which the “Average Z-score” value in experiment [1] (setting [3]) is given as −11.8. In experiment [2], the IC50 amounted to 7 µM and the Emax was 40%.

In the case of `Cc1ccccc1-c1ccc([C@H]2[C@@H](CO)N3CCCCN(S(C)(=O)=O)C[C@@H]23)cc1` [compound 077], in experiment [1] (setting [3]), the “Average Z-score” value was −2.31. Besides, the IC50 in experiment [2] is greater than 100 µM.

Turning to `Cc1cccc(-c2ccc([C@@H]3[C@@H](CO)N4CCCCN(S(=O)(=O)c5cn(C)cn5)C[C@@H]34)cc2)c1` [compound 342], the “Average Z-score” value in experiment [1] (setting [3]) is given as −17.53. For the same molecule, in experiment [2], the IC50 turned out to be 0.6 µM and the Emax worked out at 50%.

On to `Cc1cccc(-c2ccc([C@H]3[C@@H](CO)N4CCCCN(C(=O)c5cccnc5)C[C@H]34)cc2)c1` [compound 091], for which the “Average Z-score” value in experiment [1] (setting [3]) is on record as −16.96. Besides, in experiment [2], the half-maximal inhibitory concentration (IC50) is 7 µM and the Emax is 70%.

On to `Cc1ccccc1-c1ccc([C@@H]2[C@H]3CN(C(=O)c4ccncc4)CC(=O)N3[C@H]2CO)cc1` [compound 102], for which the “Average Z-score” value in experiment [1] (setting [4]) was −13.56*. Further, the Emax in experiment [2] is 80%.

Regarding `Cc1ccccc1-c1ccc([C@@H]2[C@@H](CO)N3C(=O)CN(S(C)(=O)=O)C[C@@H]23)cc1` [compound 585], the “Average Z-score” value in experiment [1] (setting [4]) is given as −12.65*. Further, in experiment [2], the IC50 was 2.5 µM and the Emax amounted to 40%.

`Cc1ccccc1-c1ccc(C2C3CN(Cc4cncnc4)CC2N3)cc1` (stereo not shown) [C8]: the “Average Z-score” value in experiment [1] (setting [3]) was −2.58. Further, in experiment [2], the IC50 was 7.5 µM and the Emax came to 70%.

With `Cc1ccccc1-c1ccc([C@@H]2[C@H]3CN(S(=O)(=O)c4cn(C)cn4)CCCCN3[C@H]2CO)cc1` [compound 868], the “Average Z-score” value in experiment [1] (setting [3]) is given as −18.53. Moreover, in experiment [2], the IC50 is 2.5 µM and the Emax was determined as 40%.

On to `COc1ccccc1-c1ccc([C@H]2[C@@H](CO)N3CCCCN(C(=O)c4ccncc4)C[C@H]23)cc1` [compound 586], for which, in experiment [1] (setting [3]), the “Average Z-score” value is reported as −17.17. Also, in experiment [2], the IC50 turned out to be 7 µM and the Emax worked out at 70%.

Take `COc1ccccc1C#Cc1ccc([C@H]2[C@H]3CN(C(=O)C4CCC4)CCCCN3[C@H]2CO)cc1` [compound 141]: in experiment [1] (setting [4]), the “Average Z-score” value is −17.53*. Also, the IC50 in experiment [2] is greater than 100 µM.

Turning to `COc1ccccc1-c1ccc([C@@H]2[C@@H](C#N)N(C(=O)C3CC3)[C@@H]2CO)cc1` [D1], the “Average Z-score” value in experiment [1] (setting [3]) is given as −16.97.

On to `Cc1cccc(-c2ccc([C@H]3[C@@H](CO)N4CCCCN(Cc5cccnc5)C[C@H]34)cc2)c1` [compound 959], for which the “Average Z-score” value in experiment [1] (setting [3]) is given as −6.79. The IC50 in experiment [2] is greater than 60 µM.

Regarding `Cc1ccccc1-c1ccc([C@H]2[C@@H](CO)N3CCCCN(C(=O)Nc4cccc(F)c4)C[C@@H]23)cc1` [compound 269], the “Average Z-score” value in experiment [1] (setting [3]) is listed as −4.36. Moreover, the Emax in experiment [2] was determined as 30%.

On to `CCCCC(=O)N1CC(=O)N2[C@@H](CO)[C@@H](c3ccc(C#Cc4cccc(OC)c4)cc3)[C@@H]2C1` [compound 564], for which, in experiment [1] (setting [3]), the “Average Z-score” value is given as −1.33. The IC50 in experiment [2] was greater than 100 µM.

Consider `Cc1cccc(-c2ccc([C@@H]3[C@@H](CO)N4CCCCN(C(=O)c5cccnc5)C[C@@H]34)cc2)c1` [compound 296], for which the “Average Z-score” value in experiment [1] (setting [3]) is listed as −3.25. For the same molecule, the IC50 in experiment [2] was greater than 100 µM.

As for `Cc1ccccc1-c1ccc([C@H]2[C@@H](CO)N3CCCCN(CC4CC4)C[C@@H]23)cc1` [compound 768], in experiment [1] (setting [3]), the “Average Z-score” value is reported as −3.48. Further, the half-maximal inhibitory concentration (IC50) in experiment [2] is greater than 100 µM.

On to `COc1ccccc1NC(=O)N1CCCCN2[C@H](CO)[C@@H](c3ccc(-c4cccc(C)c4)cc3)[C@@H]2C1` [compound 154], for which the “Average Z-score” value in experiment [1] (setting [3]) is recorded as −2.84. In addition, in experiment [2], the IC50 is greater than 10 µM and the Emax was 20%.

With `CCS(=O)(=O)N1CCCCN2[C@@H](CO)[C@@H](c3ccc(C#Cc4ccccc4OC)cc3)[C@@H]2C1` [compound 964], in experiment [1] (setting [3]), the “Average Z-score” value is given as −19.69. Also, in experiment [2], the IC50 turned out to be 2.5 µM and the Emax is 90%.

`Cc1ccccc1-c1ccc([C@H]2[C@@H](CO)N3CCCCN(C(=O)c4cccnc4)C[C@@H]23)cc1` [compound 712]: in experiment [1] (setting [3]), the “Average Z-score” value is −4.78. Moreover, in experiment [2], the IC50 is greater than 100 µM.

Consider `Cc1ccccc1-c1ccc([C@H]2[C@@H](CO)N3C(=O)CN(C(=O)c4cccnc4)C[C@H]23)cc1` [compound 3421], for which, in experiment [1] (setting [3]), the “Average Z-score” value is on record as −17.16. In experiment [2], the IC50 came out at 2 µM and the Emax is 60%.

Regarding `COC(=O)N1CCCCN2[C@H](CO)[C@@H](c3ccc(-c4cccc(C)c4)cc3)[C@@H]2C1` [compound 559], the “Average Z-score” value in experiment [1] (setting [3]) was −5.28. For the same molecule, the IC50 in experiment [2] was greater than 100 µM.

On to `Cc1ccccc1-c1ccc([C@H]2[C@H](CO)N3C(=O)CN(C(=O)c4ccncc4)C[C@@H]23)cc1` [compound 580], for which the “Average Z-score” value in experiment [1] (setting [3]) is −7.49. Further, in experiment [2], the Emax was determined as 70%.

`Cc1ccccc1-c1ccc([C@@H]2[C@@H](CO)N3C(=O)CN(C(=O)Cc4ccccn4)C[C@@H]23)cc1` [compound 081]: in experiment [1] (setting [3]), the “Average Z-score” value is given as −19.85. In addition, in experiment [2], the IC50 worked out at 2.5 µM and the Emax was determined as 50%.

Take `COc1cccc(-c2ccc([C@@H]3[C@@H](CO)N4CCCCN(C(=O)Nc5ccncc5)C[C@@H]34)cc2)c1` [compound 433]: the “Average Z-score” value in experiment [1] (setting [3]) is on record as −2.37. For the same molecule, the IC50 in experiment [2] was greater than 100 µM.

`Cc1cccc(-c2ccc([C@@H]3[C@@H](CO)N4CCCCN(S(=O)(=O)c5ccccc5F)C[C@@H]34)cc2)c1` [compound 688]: in experiment [1] (setting [4]), the “Average Z-score” value is −27.23*.

Regarding `COc1ccccc1-c1ccc([C@H]2[C@H](C#N)N[C@@H]2CO)cc1` [D7], the “Average Z-score” value in experiment [1] (setting [3]) is −10.49.

For `COc1ccccc1C#Cc1ccc([C@@H]2[C@H](CO)N3CCCCN(C(=O)C4CCC4)C[C@@H]23)cc1` [compound 930], the “Average Z-score” value in experiment [1] (setting [4]) was −10.53*.

As to `COc1cccc(C#Cc2ccc([C@@H]3[C@H](CO)N4C(=O)CN(C(=O)Cc5cccnc5)C[C@@H]34)cc2)c1` [compound 089], in experiment [1] (setting [3]), the “Average Z-score” value is reported as −4.11.

As to `Cc1ccccc1-c1ccc(C2C3CN(Cc4cccnc4)CC2N3)cc1` (stereo not shown) [C5], the “Average Z-score” value in experiment [1] (setting [3]) is recorded as −13.95.

As for `CCCNC(=O)N1CC(=O)N2[C@H](CO)[C@H](c3ccc(-c4cccc(C)c4)cc3)[C@@H]2C1` [compound 782], the “Average Z-score” value in experiment [1] (setting [3]) is −16.08.
